Test results from US20240238424A1, “HETEROBIFUNCTIONAL COMPOUNDS AND METHODS OF TREATING DISEASE” (Halda Therapeutics OpCo, Inc., priority 2021, published 2024).

Key:
HeLa KRas G12C cells = test: Cellular growth inhibition assay (CTG), HeLa KRas G12C cells; assay type: cell-based; details: Homo sapiens, CellTiter-Glo 2.0, day-5
Description: Cells were seeded in Poly-D-lysine-treated 384-well white plates, with 25 μL cell suspension at 250 cells/well for continuous treatments, and 1000 cells/well for washout treatments. Plates were spun at 300×g for 3 minutes, and cells were cultured at 37° C. with 5% CO2 in a humidified tissue culture incubator.
After 24 hours, the test compounds were diluted with cell culture medium in 96 deep well plates. DMSO was used as a negative control. A 25 μL aliquot of compound-containing medium was added in each well, at a final top concentration of 10 μM or 30 μM test compound, with 3-fold dilutions. For washout assays, after 4 hours, cell medium with compound was removed, and the cells were washed with 75p L fresh medium. Plates were then spun at 300×g for 3 minutes and replaced with 50 μL fresh medium in each well. Plates were then spun at 300×g for 3 minutes again and cultured at 37° C. with 5% CO2.
At day-0 and day-5 of compound treatments, cell viability was quantified with CellTiter-Glo 2.0 (Promega). After equilibrating cell plates at room temperature for 30 minutes, 25 μL CellTiter-Glo 2.0 reagent was dispensed into each well (on top of 50 μL of cell culture). Plates were mixed on a shaker for 2 minutes at 500 rpm, followed by a 10-minute incubation at room temperature. Luminescence readings were measured with an EnVision Plate Reader. Data was normalized to DMSO treated day-0 cell wells. A four-parameter non-linear regression curve fit was applied to dose-response data in Prism to determine the half maximal growth inhibitory concentration (GI50) of each compound.

GSPT1 = target: T1, GSPT1 (Homo sapiens, UniProt P15170+Q96SW2); test: GSPT1 HiBit degradation assay; assay type: cell-based; details: Table 3; HEK293 LgBiT cells expressing GSPT1_HiBiT, luminescence after 6 hours
T1 construct: host or cells: HEK293 LgBiT cell line
Procedure, shortened: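 Degradation readout is luminescence at 6 h, with DC50 taken as the concentration giving 50% GSPT1 loss. Compound titrations were added together with endurazine (0.5× final) to HEK293 LgBiT/GSPT1-HiBiT cells seeded the day before and kept at 37 °C.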

T1 sequence (P15170 whole entry): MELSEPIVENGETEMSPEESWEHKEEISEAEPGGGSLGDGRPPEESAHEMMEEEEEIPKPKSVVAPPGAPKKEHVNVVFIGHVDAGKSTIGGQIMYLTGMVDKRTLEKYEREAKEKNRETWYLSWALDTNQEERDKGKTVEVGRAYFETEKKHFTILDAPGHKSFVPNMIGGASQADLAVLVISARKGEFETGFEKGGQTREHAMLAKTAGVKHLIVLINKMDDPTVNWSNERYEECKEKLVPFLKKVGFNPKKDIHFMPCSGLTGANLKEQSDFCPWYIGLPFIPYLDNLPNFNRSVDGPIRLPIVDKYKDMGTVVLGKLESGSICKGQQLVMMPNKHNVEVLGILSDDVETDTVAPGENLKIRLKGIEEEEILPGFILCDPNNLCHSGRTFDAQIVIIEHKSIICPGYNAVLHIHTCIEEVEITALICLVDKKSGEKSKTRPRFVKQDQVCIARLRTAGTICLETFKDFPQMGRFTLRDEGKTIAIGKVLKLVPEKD
T1 sequence (Q96SW2 whole entry): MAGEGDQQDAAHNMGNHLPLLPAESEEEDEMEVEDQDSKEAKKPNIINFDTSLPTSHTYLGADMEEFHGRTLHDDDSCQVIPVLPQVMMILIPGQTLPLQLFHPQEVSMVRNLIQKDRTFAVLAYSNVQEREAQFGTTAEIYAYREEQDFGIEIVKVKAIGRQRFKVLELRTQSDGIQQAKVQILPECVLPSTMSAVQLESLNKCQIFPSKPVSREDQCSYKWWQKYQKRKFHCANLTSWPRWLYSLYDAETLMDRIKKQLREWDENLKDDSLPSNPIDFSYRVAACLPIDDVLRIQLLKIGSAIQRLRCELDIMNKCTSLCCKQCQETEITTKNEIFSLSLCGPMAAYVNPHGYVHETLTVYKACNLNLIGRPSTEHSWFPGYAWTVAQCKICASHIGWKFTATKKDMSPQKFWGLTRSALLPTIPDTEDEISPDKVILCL
T1 sequence (Q16531 whole entry partner): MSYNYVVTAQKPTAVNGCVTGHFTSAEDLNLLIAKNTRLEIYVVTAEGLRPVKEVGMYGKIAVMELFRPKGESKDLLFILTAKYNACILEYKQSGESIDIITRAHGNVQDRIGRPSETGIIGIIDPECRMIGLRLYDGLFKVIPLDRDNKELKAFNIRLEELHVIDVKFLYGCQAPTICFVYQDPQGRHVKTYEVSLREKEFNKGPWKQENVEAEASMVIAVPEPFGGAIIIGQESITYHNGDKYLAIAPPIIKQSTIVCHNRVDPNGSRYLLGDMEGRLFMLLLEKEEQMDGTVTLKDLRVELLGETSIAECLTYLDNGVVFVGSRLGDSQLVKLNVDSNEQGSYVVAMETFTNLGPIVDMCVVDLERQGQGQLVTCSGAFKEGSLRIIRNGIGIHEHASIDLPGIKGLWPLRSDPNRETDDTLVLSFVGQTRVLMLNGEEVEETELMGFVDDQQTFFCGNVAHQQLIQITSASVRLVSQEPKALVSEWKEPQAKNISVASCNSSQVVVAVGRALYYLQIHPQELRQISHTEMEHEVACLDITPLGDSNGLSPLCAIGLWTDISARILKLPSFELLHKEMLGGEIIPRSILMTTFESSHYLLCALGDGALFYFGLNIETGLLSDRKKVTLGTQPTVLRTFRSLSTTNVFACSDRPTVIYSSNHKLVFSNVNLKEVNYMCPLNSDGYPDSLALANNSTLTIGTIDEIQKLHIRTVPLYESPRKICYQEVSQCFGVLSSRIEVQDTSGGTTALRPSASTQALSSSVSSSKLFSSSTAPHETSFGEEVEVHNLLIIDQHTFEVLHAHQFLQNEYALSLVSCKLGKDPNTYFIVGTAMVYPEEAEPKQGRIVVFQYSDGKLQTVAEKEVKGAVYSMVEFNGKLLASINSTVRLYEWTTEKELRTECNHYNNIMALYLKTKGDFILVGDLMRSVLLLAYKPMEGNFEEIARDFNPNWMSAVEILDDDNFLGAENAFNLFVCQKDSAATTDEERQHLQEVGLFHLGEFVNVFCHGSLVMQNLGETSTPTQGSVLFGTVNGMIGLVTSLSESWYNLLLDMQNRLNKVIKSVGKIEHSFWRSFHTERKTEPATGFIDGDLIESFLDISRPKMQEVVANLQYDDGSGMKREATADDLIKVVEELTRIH

C=C(F)C(=O)N1CCN(c2nc(OC[C@@H]3CCCN3CCOCCOCCOCCOCCOCCOCCOCCOCCOCCOCCc3cc(Cl)cc(NC(=O)NCc4ccc5c(c4)CN(C4CCC(=O)NC4=O)C5=O)c3)nc3c2CCN(c2cccc4cccc(Cl)c24)C3)C[C@@H]1CC#N (stereo partly drawn) [Compound I-12, 1-[3-chloro-5-[2-[2-[2-[2-[2-[2-[2-[2-[2-[2-[2-[(2S)-2-[[7-(8-chloro-1-naphthyl)-4-[(3S)-3-(cyanomethyl)-4-(2-fluoroprop-2-enoyl)piperazin-1-yl]-6,8-dihydro-5H-pyrido[3,4-d]pyrimidin-2-yl]oxymethyl]pyrrolidin-1-yl]ethoxy]ethoxy]ethoxy]ethoxy]ethoxy]ethoxy]ethoxy]ethoxy]ethoxy]ethoxy]ethyl]phenyl]-3-[[2-(2,6-dioxo-3-piperidyl)-1-oxo-isoindolin-5-yl]methyl]urea]
GI50 (HeLa KRas G12C cells): 3 to 10 µM | DC50 (GSPT1): 5 to 10 µM

C=CC(=O)N1CCN(c2nc(NCCOCCOCCOCCOCCOCCOCCOCCOCCOc3cc(Cl)cc(NC(=O)NCc4ccc5c(c4)CN(C4CCC(=O)NC4=O)C5=O)c3)nc3c(F)c(-c4cc(O)cc5ccccc45)c(Cl)cc23)CC1 (stereo not drawn) [Compound I-13, 1-[3-chloro-5-[2-[2-[2-[2-[2-[2-[2-[2-[2-[[6-chloro-8-fluoro-7-(3-hydroxy-1-naphthyl)-4-(4-prop-2-enoylpiperazin-1-yl)quinazolin-2-yl]amino]ethoxy]ethoxy]ethoxy]ethoxy]ethoxy]ethoxy]ethoxy]ethoxy]ethoxy]phenyl]-3-[[2-(2,6-dioxo-3-piperidyl)-1-oxo-isoindolin-5-yl]methyl]urea]
GI50 (HeLa KRas G12C cells): > 10 µM | DC50 (GSPT1): > 10 µM

C=CC(=O)N1CCN(c2nc(NCCOCCOCCOCCOCCOCCOCCOCCOCCOCCOCCOc3cc(Cl)cc(NC(=O)NCc4ccc5c(c4)CN(C4CCC(=O)NC4=O)C5=O)c3)nc3c(F)c(-c4cc(O)cc5ccccc45)c(Cl)cc23)CC1 (stereo not drawn) [Compound I-14, 1-[3-chloro-5-[2-[2-[2-[2-[2-[2-[2-[2-[2-[2-[2-[[6-chloro-8-fluoro-7-(3-hydroxy-1-naphthyl)-4-(4-prop-2-enoylpiperazin-1-yl)quinazolin-2-yl]amino]ethoxy]ethoxy]ethoxy]ethoxy]ethoxy]ethoxy]ethoxy]ethoxy]ethoxy]ethoxy]ethoxy]phenyl]-3-[[2-(2,6-dioxo-3-piperidyl)-1-oxo-isoindolin-5-yl]methyl]urea]
GI50 (HeLa KRas G12C cells): > 10 µM | DC50 (GSPT1): > 10 µM

C=CC(=O)N1CCN(c2nc(NCCOCCOCCOCCOCCOCCOCCOCCOCCc3cc(Cl)cc(NC(=O)NCc4ccc5c(c4)CN(C4CCC(=O)NC4=O)C5=O)c3)nc3c(F)c(-c4cc(O)cc5ccccc45)c(Cl)cc23)CC1 (stereo not drawn) [Compound I-15, 1-[3-chloro-5-[2-[2-[2-[2-[2-[2-[2-[2-[2-[[6-chloro-8-fluoro-7-(3-hydroxy-1-naphthyl)-4-(4-prop-2-enoylpiperazin-1-yl)quinazolin-2-yl]amino]ethoxy]ethoxy]ethoxy]ethoxy]ethoxy]ethoxy]ethoxy]ethoxy]ethyl]phenyl]-3-[[2-(2,6-dioxo-3-piperidyl)-1-oxo-isoindolin-5-yl]methyl]urea]
GI50 (HeLa KRas G12C cells): > 10 µM | DC50 (GSPT1): > 10 µM

C=CC(=O)N1CCN(c2nc(NCCOCCOCCOCCOCCOCCOCCOCCOCCOCCOCCc3cc(Cl)cc(NC(=O)NCc4ccc5c(c4)CN(C4CCC(=O)NC4=O)C5=O)c3)nc3c(F)c(-c4cc(O)cc5ccccc45)c(Cl)cc23)CC1 (stereo not drawn) [Compound I-16, 1-[3-chloro-5-[2-[2-[2-[2-[2-[2-[2-[2-[2-[2-[2-[[6-chloro-8-fluoro-7-(3-hydroxy-1-naphthyl)-4-(4-prop-2-enoylpiperazin-1-yl)quinazolin-2-yl]amino]ethoxy]ethoxy]ethoxy]ethoxy]ethoxy]ethoxy]ethoxy]ethoxy]ethoxy]ethoxy]ethyl]phenyl]-3-[[2-(2,6-dioxo-3-piperidyl)-1-oxo-isoindolin-5-yl]methyl]urea]
GI50 (HeLa KRas G12C cells): > 10 µM | DC50 (GSPT1): > 10 µM

C=CC(=O)N1CCN(c2nc(NCCC(=O)N(C)CCOCCOCCOCCOCCOCCOCCc3cc(Cl)cc(NC(=O)NCc4ccc5c(c4)CN(C4CCC(=O)NC4=O)C5=O)c3)nc3c(F)c(-c4cc(O)cc5ccccc45)c(Cl)cc23)CC1 (stereo not drawn) [Compound I-17]
GI50 (HeLa KRas G12C cells): > 10 µM | DC50 (GSPT1): > 10 µM

C=CC(=O)N1CCN(c2nc(NCCC(=O)N(C)CCOCCOCCOCCOCCOCCOCCOCCOCCc3cc(Cl)cc(NC(=O)NCc4ccc5c(c4)CN(C4CCC(=O)NC4=O)C5=O)c3)nc3c(F)c(-c4cc(O)cc5ccccc45)c(Cl)cc23)CC1 (stereo not drawn) [Compound I-18, N-[2-[2-[2-[2-[2-[2-[2-[2-[2-[3-chloro-5-[[2-(2,6-dioxo-3-piperidyl)-1-oxo-isoindolin-5-yl]methylcarbamoylamino]phenyl]ethoxy]ethoxy]ethoxy]ethoxy]ethoxy]ethoxy]ethoxy]ethoxy]ethyl]-3-[[6-chloro-8-fluoro-7-(3-hydroxy-1-naphthyl)-4-(4-prop-2-enoylpiperazin-1-yl)quinazolin-2-yl]amino]-N-methyl-propanamide]
GI50 (HeLa KRas G12C cells): > 10 µM | DC50 (GSPT1): > 10 µM

C=C(F)C(=O)N1CCN(c2nc(OC[C@@H]3CCCN3CCOCCOCCOCCOCCOCCOCCOCCOCCOCCOCCOCCOCCc3cc(Cl)cc(NC(=O)NCc4ccc5c(c4)CN(C4CCC(=O)NC4=O)C5=O)c3)nc3c2CCN(c2cccc4cccc(Cl)c24)C3)C[C@@H]1CC#N (stereo partly drawn) [Compound I-37]
GI50 (HeLa KRas G12C cells): > 10 µM | DC50 (GSPT1): 0.25 to 5 µM

C=C(F)C(=O)N1CCN(c2nc(OC[C@@H]3CCCN3CCOCCOCCOCCOCCOCCOCCOCCOCCCCCCCCc3cc(Cl)cc(NC(=O)NCc4ccc5c(c4)CN(C4CCC(=O)NC4=O)C5=O)c3)nc3c2CCN(c2cccc4cccc(Cl)c24)C3)C[C@@H]1CC#N (stereo partly drawn) [Compound I-38]
GI50 (HeLa KRas G12C cells): < 1 µM | DC50 (GSPT1): < 0.25 µM

C=C(F)C(=O)N1CCN(c2nc(OC[C@H]3CCCN3CCOCCOCCOCCOCCOCCOCCOCCOCCOCCOCCCCCCCCc3cc(Cl)cc(NC(=O)NCc4ccc5c(c4)CN(C4CCC(=O)NC4=O)C5=O)c3)nc3c2CCN(c2cccc4cccc(Cl)c24)C3)C[C@H]1CC#N (stereo partly drawn) [Compound I-39]
GI50 (HeLa KRas G12C cells): < 1 µM | DC50 (GSPT1): < 0.25 µM

C=C(F)C(=O)N1CCN(c2nc(OC[C@@H]3CCCN3CCOCCOCCOCCOCCCCCCCCc3cc(Cl)cc(NC(=O)NCc4ccc5c(c4)CN(C4CCC(=O)NC4=O)C5=O)c3)nc3c2CCN(c2cccc4cccc(Cl)c24)C3)C[C@@H]1CC#N (stereo partly drawn) [Compound I-40]
GI50 (HeLa KRas G12C cells): < 1 µM | DC50 (GSPT1): < 0.25 µM

C=C(F)C(=O)N1CCN(c2nc(OC[C@@H]3CCCN3CCOCCOCCOCCOCCOCCOCCCCCCCCc3cc(Cl)cc(NC(=O)NCc4ccc5c(c4)CN(C4CCC(=O)NC4=O)C5=O)c3)nc3c2CCN(c2cccc4cccc(Cl)c24)C3)C[C@@H]1CC#N (stereo partly drawn) [Compound I-41]
GI50 (HeLa KRas G12C cells): < 1 µM | DC50 (GSPT1): < 0.25 µM

C=C(F)C(=O)N1CCN(c2nc(OC[C@@H]3CCCN3CCOCCOCCOCCOCCOCCOCCOCCOCCOCCOCCOCCOCCOc3cc(Cl)cc(NC(=O)NCc4ccc5c(c4)CN(C4CCC(=O)NC4=O)C5=O)c3)nc3c2CCN(c2cccc4cccc(Cl)c24)C3)C[C@@H]1CC#N (stereo partly drawn) [Compound I-42]
GI50 (HeLa KRas G12C cells): > 10 µM | DC50 (GSPT1): > 10 µM

C=C(F)C(=O)N1CCN(c2nc(OC[C@@H]3CCCN3CCOCCOCCOCCOCCOCCOCCOCCCCCc3cc(Cl)cc(NC(=O)NCc4ccc5c(c4)CN(C4CCC(=O)NC4=O)C5=O)c3)nc3c2CCN(c2cccc4cccc(Cl)c24)C3)C[C@@H]1CC#N (stereo partly drawn) [Compound I-43]
GI50 (HeLa KRas G12C cells): 1 to 3 µM | DC50 (GSPT1): 0.25 to 5 µM

C=C(F)C(=O)N1CCN(c2nc(OC[C@@H]3CCCN3CCOCCOCCOCCOCCOCCOCCOCCOCCOCCCCCc3cc(Cl)cc(NC(=O)NCc4ccc5c(c4)CN(C4CCC(=O)NC4=O)C5=O)c3)nc3c2CCN(c2cccc4cccc(Cl)c24)C3)C[C@@H]1CC#N (stereo partly drawn) [Compound I-44]
GI50 (HeLa KRas G12C cells): 1 to 3 µM | DC50 (GSPT1): 0.25 to 5 µM
